By residual activity is commonly meant the signal under treatment as a percentage of the control signal.

SMILES strings stand for the structures.

CSNK1G3 (human), sequence (Q9Y6M4 whole entry, looked up): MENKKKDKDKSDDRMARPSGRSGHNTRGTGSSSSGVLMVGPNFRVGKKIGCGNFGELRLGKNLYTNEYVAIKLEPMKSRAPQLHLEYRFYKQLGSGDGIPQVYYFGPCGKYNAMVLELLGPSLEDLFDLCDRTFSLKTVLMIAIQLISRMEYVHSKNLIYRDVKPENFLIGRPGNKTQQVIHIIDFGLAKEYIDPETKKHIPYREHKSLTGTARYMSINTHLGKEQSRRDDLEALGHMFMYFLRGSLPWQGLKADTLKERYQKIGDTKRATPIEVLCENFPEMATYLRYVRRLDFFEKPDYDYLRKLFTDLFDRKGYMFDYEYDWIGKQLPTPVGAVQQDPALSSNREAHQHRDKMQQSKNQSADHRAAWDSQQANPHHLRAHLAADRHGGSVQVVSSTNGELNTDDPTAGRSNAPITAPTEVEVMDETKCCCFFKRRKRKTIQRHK
NEK3 (human), sequence (P51956 whole entry, looked up): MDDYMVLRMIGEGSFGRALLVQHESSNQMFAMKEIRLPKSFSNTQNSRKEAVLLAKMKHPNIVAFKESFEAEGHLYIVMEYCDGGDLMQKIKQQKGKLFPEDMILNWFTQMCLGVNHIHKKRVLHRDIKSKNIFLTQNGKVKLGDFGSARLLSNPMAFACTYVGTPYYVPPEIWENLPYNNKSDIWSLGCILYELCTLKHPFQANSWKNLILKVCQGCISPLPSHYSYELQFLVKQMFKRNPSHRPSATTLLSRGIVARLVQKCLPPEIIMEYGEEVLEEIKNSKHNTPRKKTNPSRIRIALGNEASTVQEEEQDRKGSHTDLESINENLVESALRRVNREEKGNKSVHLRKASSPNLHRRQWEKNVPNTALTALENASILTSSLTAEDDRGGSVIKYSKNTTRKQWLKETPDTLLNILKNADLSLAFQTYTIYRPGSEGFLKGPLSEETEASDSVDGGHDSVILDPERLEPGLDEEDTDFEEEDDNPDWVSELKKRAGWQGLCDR
BLK (human), sequence (P51451 whole entry, looked up): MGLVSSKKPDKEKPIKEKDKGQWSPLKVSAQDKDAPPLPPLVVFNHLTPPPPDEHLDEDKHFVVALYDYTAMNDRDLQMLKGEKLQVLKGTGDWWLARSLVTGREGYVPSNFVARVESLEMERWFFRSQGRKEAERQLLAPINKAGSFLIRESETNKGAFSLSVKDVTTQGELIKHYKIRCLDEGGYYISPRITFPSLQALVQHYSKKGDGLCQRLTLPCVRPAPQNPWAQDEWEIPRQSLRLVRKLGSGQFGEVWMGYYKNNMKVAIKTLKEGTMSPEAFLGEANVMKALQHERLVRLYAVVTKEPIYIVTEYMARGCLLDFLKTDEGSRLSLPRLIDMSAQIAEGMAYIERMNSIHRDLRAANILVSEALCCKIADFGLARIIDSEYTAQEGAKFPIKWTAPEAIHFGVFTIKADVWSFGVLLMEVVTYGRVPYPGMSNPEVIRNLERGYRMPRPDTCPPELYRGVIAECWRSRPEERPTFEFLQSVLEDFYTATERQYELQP

The first assay has as its target PRKCI (human) (UniProt P41743). Nature of the assay: radiometric filter-binding kinase assay, Kinase HotSpot. Conditions: compound 0.5 µM; ATP 10 µM.
`CNc1cc2c(Nc3cccc(Br)c3)ncnc2cn1`: the residual activity was 96.4%.
On the same count and under the same terms, under `O=C1Nc2ccc(Cl)cc2/C1=C/c1cc(Cl)c(O)c(Cl)c1` stands 94.1%; under `Cc1ccc(S(=O)(=O)/C=C/C#N)cc1`, 90.3%.

The target in the next assay is CSNK1G2 (human) (UniProt P78368). The assay is described as above. Conditions: compound 0.5 µM; ATP 10 µM.
CSNK1G2 (human), sequence (P78368 whole entry, looked up): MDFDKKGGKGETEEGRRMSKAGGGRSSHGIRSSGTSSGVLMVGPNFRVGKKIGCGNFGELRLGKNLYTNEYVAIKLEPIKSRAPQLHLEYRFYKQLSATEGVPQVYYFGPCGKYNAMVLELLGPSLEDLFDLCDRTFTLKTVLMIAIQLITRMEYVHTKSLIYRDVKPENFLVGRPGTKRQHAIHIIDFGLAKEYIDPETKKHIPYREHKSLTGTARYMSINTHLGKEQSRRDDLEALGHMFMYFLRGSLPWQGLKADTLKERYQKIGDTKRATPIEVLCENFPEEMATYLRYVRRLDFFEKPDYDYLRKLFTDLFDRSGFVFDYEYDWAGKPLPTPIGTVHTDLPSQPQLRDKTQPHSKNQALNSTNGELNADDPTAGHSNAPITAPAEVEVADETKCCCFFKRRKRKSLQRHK
Take `CNc1cc2c(Nc3cccc(Br)c3)ncnc2cn1`: the residual activity amounted to 95.8%.
The same measure, in the same setting: for `O=C1Nc2ccc(Cl)cc2/C1=C/c1cc(Cl)c(O)c(Cl)c1` the value was 83.5%.
In the case of `Cc1ccc(S(=O)(=O)/C=C/C#N)cc1`, the residual activity was 98.6%.

The target of the next assay is DMPK (human) (UniProt Q09013). The description is as above. Conditions: compound 0.5 µM; ATP 10 µM.
For `CNc1cc2c(Nc3cccc(Br)c3)ncnc2cn1`, the residual activity was 112%.
Same read-out and setting: for `O=C1Nc2ccc(Cl)cc2/C1=C/c1cc(Cl)c(O)c(Cl)c1` the value was 112%.
On the same count and under the same terms, for `Cc1ccc(S(=O)(=O)/C=C/C#N)cc1` the value was 89%.

The target of a further assay is ABL1 (human) (UniProt P00519). The assay is described as above. Conditions: compound 0.5 µM; ATP 10 µM.
ABL1 (human), sequence (P00519 whole entry, looked up): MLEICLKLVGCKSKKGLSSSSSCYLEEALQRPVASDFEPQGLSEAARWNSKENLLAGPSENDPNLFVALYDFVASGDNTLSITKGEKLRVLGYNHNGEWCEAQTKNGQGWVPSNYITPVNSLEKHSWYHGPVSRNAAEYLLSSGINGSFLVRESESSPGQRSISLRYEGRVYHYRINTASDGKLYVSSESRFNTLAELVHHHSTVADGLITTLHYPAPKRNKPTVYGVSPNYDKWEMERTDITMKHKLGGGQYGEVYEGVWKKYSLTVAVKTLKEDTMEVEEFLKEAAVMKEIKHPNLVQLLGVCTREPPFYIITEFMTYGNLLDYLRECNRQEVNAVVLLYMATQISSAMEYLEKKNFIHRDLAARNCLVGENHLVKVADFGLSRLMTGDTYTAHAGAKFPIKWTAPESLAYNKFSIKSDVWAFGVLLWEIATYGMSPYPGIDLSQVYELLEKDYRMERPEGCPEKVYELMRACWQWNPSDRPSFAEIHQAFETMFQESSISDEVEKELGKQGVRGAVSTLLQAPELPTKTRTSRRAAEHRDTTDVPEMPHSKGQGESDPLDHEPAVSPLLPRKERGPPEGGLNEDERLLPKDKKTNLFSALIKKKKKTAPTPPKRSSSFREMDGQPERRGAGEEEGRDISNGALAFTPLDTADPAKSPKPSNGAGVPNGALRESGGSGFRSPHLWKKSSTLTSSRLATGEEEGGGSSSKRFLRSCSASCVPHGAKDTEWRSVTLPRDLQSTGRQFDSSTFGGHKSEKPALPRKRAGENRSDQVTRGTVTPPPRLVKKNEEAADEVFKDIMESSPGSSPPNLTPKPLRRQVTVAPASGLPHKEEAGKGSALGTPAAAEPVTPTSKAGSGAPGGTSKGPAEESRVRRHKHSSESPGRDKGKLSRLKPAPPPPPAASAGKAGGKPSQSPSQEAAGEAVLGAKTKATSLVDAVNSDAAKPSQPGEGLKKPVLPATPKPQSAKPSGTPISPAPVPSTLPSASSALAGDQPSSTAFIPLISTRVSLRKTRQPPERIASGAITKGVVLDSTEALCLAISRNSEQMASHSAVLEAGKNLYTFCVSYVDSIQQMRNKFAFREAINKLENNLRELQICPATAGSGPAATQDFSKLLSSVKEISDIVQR
On to `CNc1cc2c(Nc3cccc(Br)c3)ncnc2cn1`, for which the residual activity turned out to be 89.8%.
Still for that read-out and setting: under `O=C1Nc2ccc(Cl)cc2/C1=C/c1cc(Cl)c(O)c(Cl)c1` stands 84%; under `Cc1ccc(S(=O)(=O)/C=C/C#N)cc1`, 98.7%.

Another assay has as its target CSNK1G3 (human) (UniProt Q9Y6M4). The description is as above. Conditions: compound 0.5 µM; ATP 10 µM.
On to `CNc1cc2c(Nc3cccc(Br)c3)ncnc2cn1`, for which the residual activity is 86.3%.
With `O=C1Nc2ccc(Cl)cc2/C1=C/c1cc(Cl)c(O)c(Cl)c1`, the residual activity worked out at 93%.
On the same count and under the same terms, for `Cc1ccc(S(=O)(=O)/C=C/C#N)cc1` the value was 88.3%.

A further assay has as its target MAPK8 (human) (UniProt P45983). Described as above. Conditions: compound 0.5 µM; ATP 10 µM.
`CNc1cc2c(Nc3cccc(Br)c3)ncnc2cn1`: the residual activity turned out to be 96.4%.
Same read-out and setting: under `O=C1Nc2ccc(Cl)cc2/C1=C/c1cc(Cl)c(O)c(Cl)c1` stands 82.8%; under `Cc1ccc(S(=O)(=O)/C=C/C#N)cc1`, 74.7%.

For another assay, the target named is MAP4K4 (human) (UniProt O95819). Described as above. Conditions: compound 0.5 µM; ATP 10 µM.
Take `CNc1cc2c(Nc3cccc(Br)c3)ncnc2cn1`: the residual activity turned out to be 86.9%.
On to `O=C1Nc2ccc(Cl)cc2/C1=C/c1cc(Cl)c(O)c(Cl)c1`, for which the residual activity was 4.48%.
On the same count and under the same terms, under `Cc1ccc(S(=O)(=O)/C=C/C#N)cc1` stands 106%.

A further assay addresses BLK (human) (UniProt P51451). The assay is described as above. Conditions: compound 0.5 µM; ATP 10 µM.
`CNc1cc2c(Nc3cccc(Br)c3)ncnc2cn1`: the residual activity was found to be 103%.
On the same count and under the same terms, under `O=C1Nc2ccc(Cl)cc2/C1=C/c1cc(Cl)c(O)c(Cl)c1` stands 102%; under `Cc1ccc(S(=O)(=O)/C=C/C#N)cc1`, 103%.

In a further assay the target is CDK7 CCNH MNAT1 (human) (UniProt P50613+P51948+P51946). The description is as above. Conditions: compound 0.5 µM; ATP 10 µM.
In the case of `CNc1cc2c(Nc3cccc(Br)c3)ncnc2cn1`, the residual activity was found to be 102%.
On the same count and under the same terms, for `O=C1Nc2ccc(Cl)cc2/C1=C/c1cc(Cl)c(O)c(Cl)c1` the value was 96.7%.
Take `Cc1ccc(S(=O)(=O)/C=C/C#N)cc1`: the residual activity was 98.2%.

In a further assay the target is ROS1 (human) (UniProt P08922). The description is as above. Conditions: compound 0.5 µM; ATP 10 µM.
With `CNc1cc2c(Nc3cccc(Br)c3)ncnc2cn1`, the residual activity amounted to 89.1%.
Still for that read-out and setting: under `O=C1Nc2ccc(Cl)cc2/C1=C/c1cc(Cl)c(O)c(Cl)c1` stands 89.7%; under `Cc1ccc(S(=O)(=O)/C=C/C#N)cc1`, 94.1%.

The target in the next assay is GRK6 (human) (UniProt P43250). The description is as above. Conditions: compound 0.5 µM; ATP 10 µM.
Consider `CNc1cc2c(Nc3cccc(Br)c3)ncnc2cn1`, for which the residual activity is 91.1%.
Same read-out and setting: for `O=C1Nc2ccc(Cl)cc2/C1=C/c1cc(Cl)c(O)c(Cl)c1` the value was 89.6%; for `Cc1ccc(S(=O)(=O)/C=C/C#N)cc1`, 112%.

The target in the next assay is AURKC (human) (UniProt Q9UQB9). Described as above. Conditions: compound 0.5 µM; ATP 10 µM.
Regarding `CNc1cc2c(Nc3cccc(Br)c3)ncnc2cn1`, the residual activity came to 85.9%.
Still for that read-out and setting: for `O=C1Nc2ccc(Cl)cc2/C1=C/c1cc(Cl)c(O)c(Cl)c1` the value was 78.6%; for `Cc1ccc(S(=O)(=O)/C=C/C#N)cc1`, 97.1%.

Another assay addresses KDR (human) (UniProt P35968). The assay is described as above. Conditions: compound 0.5 µM; ATP 10 µM.
Turning to `CNc1cc2c(Nc3cccc(Br)c3)ncnc2cn1`, the residual activity worked out at 77.6%.
The same measure, in the same setting: under `O=C1Nc2ccc(Cl)cc2/C1=C/c1cc(Cl)c(O)c(Cl)c1` stands 86.1%; under `Cc1ccc(S(=O)(=O)/C=C/C#N)cc1`, 94.7%.

A further assay deals with BTK (human) (UniProt Q06187). The assay is described as above. Conditions: compound 0.5 µM; ATP 10 µM.
BTK (human), sequence (Q06187 whole entry, looked up): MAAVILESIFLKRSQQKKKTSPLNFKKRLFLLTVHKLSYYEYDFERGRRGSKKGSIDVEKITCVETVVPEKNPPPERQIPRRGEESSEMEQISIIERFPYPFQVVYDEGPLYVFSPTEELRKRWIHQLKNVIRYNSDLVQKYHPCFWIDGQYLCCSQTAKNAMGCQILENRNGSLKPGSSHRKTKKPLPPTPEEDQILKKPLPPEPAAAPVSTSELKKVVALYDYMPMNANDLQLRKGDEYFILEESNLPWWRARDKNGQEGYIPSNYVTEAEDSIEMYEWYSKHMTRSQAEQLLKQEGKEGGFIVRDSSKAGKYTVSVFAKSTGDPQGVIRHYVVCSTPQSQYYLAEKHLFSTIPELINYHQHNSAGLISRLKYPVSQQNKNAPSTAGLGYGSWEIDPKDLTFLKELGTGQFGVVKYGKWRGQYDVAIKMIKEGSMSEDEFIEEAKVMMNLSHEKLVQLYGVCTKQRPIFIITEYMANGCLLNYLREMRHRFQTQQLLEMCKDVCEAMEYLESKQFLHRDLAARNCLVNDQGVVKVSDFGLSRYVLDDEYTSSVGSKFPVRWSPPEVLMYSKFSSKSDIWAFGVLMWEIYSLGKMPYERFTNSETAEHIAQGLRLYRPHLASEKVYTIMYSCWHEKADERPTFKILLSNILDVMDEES
Consider `CNc1cc2c(Nc3cccc(Br)c3)ncnc2cn1`, for which the residual activity came to 94.7%.
With `O=C1Nc2ccc(Cl)cc2/C1=C/c1cc(Cl)c(O)c(Cl)c1`, the residual activity is 92.1%.
Same read-out and setting: under `Cc1ccc(S(=O)(=O)/C=C/C#N)cc1` stands 94.4%.

The target of another assay is RIPK2 (human) (UniProt O43353). The assay is described as above. Conditions: compound 0.5 µM; ATP 10 µM.
RIPK2 (human), sequence (O43353 whole entry, looked up): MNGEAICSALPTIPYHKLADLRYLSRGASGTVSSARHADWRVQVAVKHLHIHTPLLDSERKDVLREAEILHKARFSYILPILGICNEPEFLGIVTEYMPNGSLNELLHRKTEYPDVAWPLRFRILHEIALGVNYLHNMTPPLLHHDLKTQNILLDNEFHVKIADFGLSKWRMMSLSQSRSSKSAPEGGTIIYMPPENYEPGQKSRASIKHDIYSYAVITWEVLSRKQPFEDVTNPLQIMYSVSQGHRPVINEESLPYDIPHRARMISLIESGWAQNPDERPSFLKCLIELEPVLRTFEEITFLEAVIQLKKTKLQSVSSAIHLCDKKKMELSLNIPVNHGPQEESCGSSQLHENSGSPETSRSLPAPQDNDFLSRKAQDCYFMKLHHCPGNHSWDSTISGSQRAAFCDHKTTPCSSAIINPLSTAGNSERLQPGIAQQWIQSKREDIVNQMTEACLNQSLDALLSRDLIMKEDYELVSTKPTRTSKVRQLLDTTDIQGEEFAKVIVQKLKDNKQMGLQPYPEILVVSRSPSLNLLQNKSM
For `CNc1cc2c(Nc3cccc(Br)c3)ncnc2cn1`, the residual activity came out at 69.2%.
On the same count and under the same terms, for `O=C1Nc2ccc(Cl)cc2/C1=C/c1cc(Cl)c(O)c(Cl)c1` the value was 50.2%.
On the same count and under the same terms, under `Cc1ccc(S(=O)(=O)/C=C/C#N)cc1` stands 93.8%.

The next assay concerns the target DYRK4 (human) (UniProt Q9NR20). The assay is described as above. Conditions: compound 0.5 µM; ATP 10 µM.
As to `CNc1cc2c(Nc3cccc(Br)c3)ncnc2cn1`, the residual activity amounted to 87.5%.
Take `O=C1Nc2ccc(Cl)cc2/C1=C/c1cc(Cl)c(O)c(Cl)c1`: the residual activity was found to be 95.7%.
Still for that read-out and setting: for `Cc1ccc(S(=O)(=O)/C=C/C#N)cc1` the value was 95.1%.

A further assay addresses NEK3 (human) (UniProt P51956). Described as above. Conditions: compound 0.5 µM; ATP 10 µM.
Regarding `CNc1cc2c(Nc3cccc(Br)c3)ncnc2cn1`, the residual activity was found to be 101%.
With `O=C1Nc2ccc(Cl)cc2/C1=C/c1cc(Cl)c(O)c(Cl)c1`, the residual activity worked out at 94%.
Still for that read-out and setting: for `Cc1ccc(S(=O)(=O)/C=C/C#N)cc1` the value was 108%.

A further assay addresses STK10 (human) (UniProt O94804). The assay is described as above. Conditions: compound 0.5 µM; ATP 10 µM.
As for `CNc1cc2c(Nc3cccc(Br)c3)ncnc2cn1`, the residual activity came to 31.8%.
On to `O=C1Nc2ccc(Cl)cc2/C1=C/c1cc(Cl)c(O)c(Cl)c1`, for which the residual activity stood at 77.1%.
The same measure, in the same setting: under `Cc1ccc(S(=O)(=O)/C=C/C#N)cc1` stands 90.6%.

The target of another assay is PLK2 (human) (UniProt Q9NYY3). The description is as above. Conditions: compound 0.5 µM; ATP 10 µM.
PLK2 (human), sequence (Q9NYY3 whole entry, looked up): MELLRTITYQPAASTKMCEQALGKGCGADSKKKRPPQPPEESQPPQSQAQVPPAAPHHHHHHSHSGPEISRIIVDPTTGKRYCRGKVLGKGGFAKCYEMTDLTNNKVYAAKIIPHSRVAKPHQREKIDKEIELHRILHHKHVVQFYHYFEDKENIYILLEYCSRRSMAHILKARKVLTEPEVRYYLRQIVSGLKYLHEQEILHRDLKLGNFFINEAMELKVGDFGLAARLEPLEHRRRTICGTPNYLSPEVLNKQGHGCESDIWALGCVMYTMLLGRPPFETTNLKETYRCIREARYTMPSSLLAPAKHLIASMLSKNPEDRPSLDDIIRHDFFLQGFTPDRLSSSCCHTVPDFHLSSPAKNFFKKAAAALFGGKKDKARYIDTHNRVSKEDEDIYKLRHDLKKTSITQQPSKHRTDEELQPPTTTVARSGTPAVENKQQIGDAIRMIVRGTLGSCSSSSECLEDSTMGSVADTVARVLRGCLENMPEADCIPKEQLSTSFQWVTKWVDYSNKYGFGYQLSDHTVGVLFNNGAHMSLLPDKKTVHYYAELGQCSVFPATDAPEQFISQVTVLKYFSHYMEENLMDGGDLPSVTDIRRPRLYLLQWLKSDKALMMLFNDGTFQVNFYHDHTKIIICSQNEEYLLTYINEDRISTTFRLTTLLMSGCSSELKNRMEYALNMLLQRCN
In the case of `CNc1cc2c(Nc3cccc(Br)c3)ncnc2cn1`, the residual activity was determined as 97.5%.
Still for that read-out and setting: for `O=C1Nc2ccc(Cl)cc2/C1=C/c1cc(Cl)c(O)c(Cl)c1` the value was 95.4%; for `Cc1ccc(S(=O)(=O)/C=C/C#N)cc1`, 103%.

The target in the next assay is PIM2 (human) (UniProt Q9P1W9). The description is as above. Conditions: compound 0.5 µM; ATP 10 µM.
As for `CNc1cc2c(Nc3cccc(Br)c3)ncnc2cn1`, the residual activity was 102%.
For the compound `O=C1Nc2ccc(Cl)cc2/C1=C/c1cc(Cl)c(O)c(Cl)c1`, the residual activity was 48.6%.
The same measure, in the same setting: for `Cc1ccc(S(=O)(=O)/C=C/C#N)cc1` the value was 103%.

The next assay deals with RPS6KB1 (human) (UniProt P23443). The assay is described as above. Conditions: compound 0.5 µM; ATP 10 µM.
In the case of `CNc1cc2c(Nc3cccc(Br)c3)ncnc2cn1`, the residual activity came out at 97.4%.
The same measure, in the same setting: under `O=C1Nc2ccc(Cl)cc2/C1=C/c1cc(Cl)c(O)c(Cl)c1` stands 91%; under `Cc1ccc(S(=O)(=O)/C=C/C#N)cc1`, 105%.

For the origin of these results see the kinase profiling compilation of Christmann-Franck et al. (2016).
